Structures can show the parent of a compound that is named as a salt.
How the values were obtained:
[1] = system: IPEC2 cells (swine intestinal cell line IPEC2-J2); assay: Methylated DNA quantification in swine intestinal cell line treated with antibiotics; type: cell-based; conditions: for average amount of methylated DNA: Tet 200 mg/L, Amx 100 mg/L, Col 480 mg/L, ± SEM; for size of the reduction in overall DNA methylation (rank among the three antibiotics): within 24 hrs of treatment, compared with antibiotic free control cells
Procedure: An in vitro to investigate the effects of three different antibiotics on the DNA methylation quantity in a swine intestinal cell line.
An immortalised cell line from swine intestines (IPEC2-J2 ACC 701 from DSMZ cell culture) was utilized in the 7th passage. In a 12 well, flat-bottom plate, 1×10^4 cel|s/well were seeded with DPBS D8537 (Sigma-Aldrich) and initially incubated for 4 days. After incubation cells were treated with one of 4 treatments for up to an additional 4 days: • 1) Incubation for 4 days without any antibiotics • 2) Incubation for 1 day with antibiotics followed by incubation for 1-3 days in antibiotic free media • 3) Incubation for 2 days with antibiotics followed by incubation for 1-2 days in antibiotic free media • 4) Incubation for 3 days with antibiotics followed by incubation for 1 day in antibiotic free media
Treatments 2, 3 and 4 were repeated with 3 different antibiotic treatments; tetracycline hydrochloride at 200 mg/L, Amoxicillin at 100 mg/L and Colistin at 480 mg/L. Duplicate cells per treatment were harvested at each time point. Media was removed, cells were washed once with DPBS, and a cell scraper was used to disassociate the cells from the bottom of the well. Cell pellets were then stored at −80° C. until DNA could be isolated using the NuceloSpin® DNA Stool Kit (Macherey and Nagel). Methylation grade of 100ng of isolated DNA was determined using the Imprint® Methylated DNA Quantification Kit (Sigma-Aldrich) which compared samples to a standard curve of known methylated DNA.

[2] = cited from earlier work; for Absorption: absorption level of the antibiotic
[3] = 1 day with antibiotic before washing, harvested Day 1
[4] = 1 day with antibiotic before washing, harvested Day 2
[5] = 1 day with antibiotic before washing, harvested Day 3
[6] = 1 day with antibiotic before washing, harvested Day 4
[7] = 2 days with antibiotic before washing, harvested Day 2
[8] = 2 days with antibiotic before washing, harvested Day 3
[9] = 2 days with antibiotic before washing, harvested Day 4
[10] = 3 days with antibiotic before washing, harvested Day 3
[11] = 3 days with antibiotic before washing, harvested Day 4

| Compound | average amount of methylated DNA [1, 3] | average amount of methylated DNA [1, 4] | average amount of methylated DNA [1, 5] | average amount of methylated DNA [1, 6] | average amount of methylated DNA [1, 7] | average amount of methylated DNA [1, 8] | average amount of methylated DNA [1, 9] | average amount of methylated DNA [1, 10] | average amount of methylated DNA [1, 11] | Absorption [2] | Recommended Withdrawal for Broilers [2] | size of the reduction in overall DNA methylation (rank among the three antibiotics) [1] |
| --- | --- | --- | --- | --- | --- | --- | --- | --- | --- | --- | --- | --- |
| CC1(C)S[C@@H]2[C@H](NC(=O)[C@H](N)c3ccc(O)cc3)C(=O)N2[C@H]1C(=O)O [Amoxicillin] | 4.1 ± 8.9 ng/100 ng isolated DNA | 12.3 ± 3.2 ng/100 ng isolated DNA | 20.4 ± 8.3 ng/100 ng isolated DNA | 19.0 ± 2.1 ng/100 ng isolated DNA | 20.9 ± 10.4 ng/100 ng isolated DNA | 9.8 ± 4.7 ng/100 ng isolated DNA | 21.3 ± 3.4 ng/100 ng isolated DNA | 26.0 ± 10.2 ng/100 ng isolated DNA | 10.2 ± 9.4 ng/100 ng isolated DNA | Systemic | 1 to 4 days | – |
| CN(C)[C@@H]1C(O)=C(C(N)=O)C(=O)[C@@]2(O)C(O)=C3C(=O)c4c(O)cccc4[C@@](C)(O)[C@H]3C[C@@H]12 [Tet, tetracycline hydrochloride] | −5.6 ± 2.9 ng/100 ng isolated DNA | 12.0 ± 6.9 ng/100 ng isolated DNA | 18.2 ± 16.0 ng/100 ng isolated DNA | 25.8 ± 22.4 ng/100 ng isolated DNA | 0.1 ± 8.1 ng/100 ng isolated DNA | −8.6 ± 11.1 ng/100 ng isolated DNA | 7.4 ± 9.7 ng/100 ng isolated DNA | 6.0 ± 13.2 ng/100 ng isolated DNA | 21.7^3 ng/100 ng isolated DNA | – | – | largest |
| CC[C@H]1OC(=O)C[C@@H](O)[C@H](C)[C@@H](O[C@@H]2O[C@H](C)[C@@H](O[C@H]3C[C@@](C)(O)[C@@H](O)[C@H](C)O3)[C@H](N(C)C)[C@H]2O)[C@@H](CC=O)C[C@@H](C)C(=O)/C=C/C(C)=C/[C@@H]1CO[C@@H]1O[C@H](C)[C@@H](O)[C@@H](OC)[C@H]1OC [Tylosin] | – | – | – | – | – | – | – | – | – | Systemic | 5 days | – |
| Bacitracin Methylene Disalicylate [BMD] | – | – | – | – | – | – | – | – | – | Local | None required | – |
| Colistin | 26.1 ± 5.0 ng/100 ng isolated DNA | 11.7 ± 6.8 ng/100 ng isolated DNA | 19.6 ± 5.5 ng/100 ng isolated DNA | 24.9 ± 0.8 ng/100 ng isolated DNA | 29.5 ± 3.8 ng/100 ng isolated DNA | 1.4 ± 7.9 ng/100 ng isolated DNA | 19.0 ± 5.4 ng/100 ng isolated DNA | 29.1 ± 18.0 ng/100 ng isolated DNA | 28.5 ± 16.4 ng/100 ng isolated DNA | – | – | finally |

— patent US20260015662A1, “DETECTING ANTIBIOTIC AND/OR CHEMICAL USE IN ANIMALS USING EPIGENETIC MEANS” (Evonik Operations GmbH, priority 2022, published 2026)
